Experimental data published in ChEMBL document CHEMBL4431357, “Discovery of a novel class of highly potent inhibitors of the p53-MDM2 interaction by structure-based design starting from a conformational argument” (Bioorg Med Chem Lett, 2016).

Molecular target: Tumour suppressor p53/oncoprotein Mdm2 (Homo sapiens, UniProt Q00987)
Experiment: Inhibition of C-terminal biotin-tagged streptavidin labelled human MDM2 ( 2 to 188 residues)/Cy5-labelled p53 (18 to 26 residues)(unknown origin) interaction after 15 mins by TR-FRET assay
Format: protein assay

Tumour suppressor p53/oncoprotein Mdm2, sequence (P04637 whole entry, the tested form may be a part): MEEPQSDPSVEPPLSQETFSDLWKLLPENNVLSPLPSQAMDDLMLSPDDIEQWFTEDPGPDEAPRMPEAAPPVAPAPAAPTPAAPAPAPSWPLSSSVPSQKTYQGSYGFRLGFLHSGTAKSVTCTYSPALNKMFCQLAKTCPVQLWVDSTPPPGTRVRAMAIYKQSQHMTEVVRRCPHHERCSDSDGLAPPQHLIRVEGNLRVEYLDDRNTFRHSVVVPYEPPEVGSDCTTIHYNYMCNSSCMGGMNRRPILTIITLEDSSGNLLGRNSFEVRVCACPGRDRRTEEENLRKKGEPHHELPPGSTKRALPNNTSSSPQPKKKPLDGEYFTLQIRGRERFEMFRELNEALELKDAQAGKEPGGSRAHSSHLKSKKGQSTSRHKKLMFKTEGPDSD
Tumour suppressor p53/oncoprotein Mdm2, sequence (Q00987 whole entry, the tested form may be a part): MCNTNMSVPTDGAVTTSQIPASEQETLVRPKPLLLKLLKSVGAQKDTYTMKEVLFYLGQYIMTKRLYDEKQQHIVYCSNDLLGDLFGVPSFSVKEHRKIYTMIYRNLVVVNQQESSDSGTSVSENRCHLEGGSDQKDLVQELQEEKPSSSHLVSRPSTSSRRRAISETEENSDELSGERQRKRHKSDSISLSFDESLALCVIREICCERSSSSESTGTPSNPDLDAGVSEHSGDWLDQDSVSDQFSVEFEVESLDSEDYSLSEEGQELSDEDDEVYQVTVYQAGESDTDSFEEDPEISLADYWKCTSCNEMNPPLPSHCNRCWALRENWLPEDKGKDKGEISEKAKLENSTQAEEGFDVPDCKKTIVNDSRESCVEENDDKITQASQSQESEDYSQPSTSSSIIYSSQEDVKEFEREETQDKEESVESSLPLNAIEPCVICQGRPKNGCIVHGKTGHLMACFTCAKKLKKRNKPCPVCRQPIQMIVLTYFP

| Structure (SMILES) | IC50 |
| --- | --- |
| Cc1ccc(N2C(=O)c3[nH]nc(C)c3C2c2ccc(Cl)cc2)cc1 (stereo not given) | 1500 nM |
| Cc1cc(Cl)ccc1C1c2c(C(C)C)n[nH]c2C(=O)N1c1cc(Cl)ccc1C (racemic) | 4.2 nM |
| CC(C)c1n[nH]c2c1C(c1ccc(Cl)cc1)N(c1cccc(Cl)c1)C2=O (racemic) | 32 nM |
| CC(C)(C)c1n[nH]c2c1C(c1ccc(Cl)cc1)N(c1cccc(Cl)c1)C2=O (racemic) | 18 nM |
| Cc1n[nH]c2c1C(c1ccc(Cl)cc1)N(c1cccc(Cl)c1)C2=O (racemic) | 350 nM |
